According to the CheMixHub viscosity set:
Where “and” joins values, the source holds several entries; their conditions need not be identical. Equal values may be shown once.

Test: xn = mol fraction of the nth substance listed

C1=C[C@H]2[C@@H](C1)[C@H]1C=C[C@@H]2C1 + Cc1ccccc1
viscosity [mPa·s], 101.2 kPa
Details	x1 = 0.1024	x1 = 0.2018	x1 = 0.3008	x1 = 0.4006	x1 = 0.4997	x1 = 0.606	x1 = 0.7014	x1 = 0.7987	x1 = 0.8991
293.15 K	0.6849	0.7905	0.9144	1.08	1.279	1.57	1.948	2.495	3.305
298.15 K	0.6448	0.7387	0.8543	1.001	1.174	1.44	1.758	2.24	2.96
303.15 K	0.6068	0.69	0.7952	0.9255	1.083	1.313	1.602	2.024	2.665
308.15 K	0.5742	0.6559	0.7533	0.8681	1.019	1.222	1.486	1.875	2.43
313.15 K	0.5451	0.6205	0.7071	0.8118	0.9488	1.135	1.375	1.718	2.208
318.15 K	0.5187	0.5889	0.6667	0.76	0.8866	1.062	1.283	1.58	2.012

C1COCCO1 + Cc1ccccc1
101 kPa
Details	viscosity
293.15 K, x1 = 0.6506	1.045 mPa·s
303.15 K, x1 = 0.0992	0.556 mPa·s
303.15 K, x1 = 0.1216	0.5749 mPa·s
303.15 K, x1 = 0.122	0.573 mPa·s
303.15 K, x1 = 0.1993	0.591 mPa·s
303.15 K, x1 = 0.2367	0.6251 mPa·s
303.15 K, x1 = 0.237	0.622 mPa·s
303.15 K, x1 = 0.2925	0.628 mPa·s
303.15 K, x1 = 0.347	0.675 mPa·s
303.15 K, x1 = 0.3999	0.676 mPa·s
303.15 K, x1 = 0.453	0.7299 mPa·s and 0.729 mPa·s
303.15 K, x1 = 0.4961	0.723 mPa·s
303.15 K, x1 = 0.554	0.779 mPa·s
303.15 K, x1 = 0.5541	0.781 mPa·s
303.15 K, x1 = 0.5981	0.778 mPa·s
303.15 K, x1 = 0.65	0.831 mPa·s
303.15 K, x1 = 0.6504	0.8368 mPa·s
303.15 K, x1 = 0.6985	0.843 mPa·s
303.15 K, x1 = 0.7438	0.8912 mPa·s
303.15 K, x1 = 0.744	0.882 mPa·s
303.15 K, x1 = 0.8009	0.918 mPa·s
303.15 K, x1 = 0.8327	0.9416 mPa·s
303.15 K, x1 = 0.833	0.939 mPa·s
303.15 K, x1 = 0.8967	0.998 mPa·s
303.15 K, x1 = 0.918	0.9965 mPa·s and 0.995 mPa·s
308.15 K, x1 = 0.1	0.533 mPa·s
308.15 K, x1 = 0.3	0.593 mPa·s
308.15 K, x1 = 0.4	0.629 mPa·s
308.15 K, x1 = 0.5	0.669 mPa·s
308.15 K, x1 = 0.6	0.709 mPa·s
308.15 K, x1 = 0.7	0.764 mPa·s
308.15 K, x1 = 0.9	0.893 mPa·s

COC(=O)CC(=O)OC + Cc1ccccc1
303.15 K, 101 kPa
Details	viscosity [mPa·s]
x1 = 0.0934	0.5584
x1 = 0.1891	0.6061
x1 = 0.2852	0.6706
x1 = 0.3836	0.7507
x1 = 0.4821	0.8493
x1 = 0.5831	0.9701
x1 = 0.6852	1.122
x1 = 0.7891	1.307
x1 = 0.8932	1.522

COc1ccccc1O + Cc1ccccc1
303.15 K, 101 kPa
Details	viscosity [mPa·s]
x2 = 0.1	3.17
x2 = 0.2	2.47
x2 = 0.3	1.83
x2 = 0.4	1.5
x2 = 0.5	1.2
x2 = 0.6	0.981
x2 = 0.7	0.815
x2 = 0.8	0.7
x2 = 0.9	0.599

BrCCBr + Cc1ccccc1C
101.33 kPa
Details	viscosity [mPa·s]
298.15 K, x1 = 0.1292	0.7932
298.15 K, x1 = 0.261	0.8771
298.15 K, x1 = 0.3856	0.9602
298.15 K, x1 = 0.4919	1.032
298.15 K, x1 = 0.585	1.098
298.15 K, x1 = 0.6529	1.182
298.15 K, x1 = 0.7597	1.263
298.15 K, x1 = 0.8472	1.374
298.15 K, x1 = 0.9267	1.487
308.15 K, x1 = 0.1371	0.5822
308.15 K, x1 = 0.2566	0.6257
308.15 K, x1 = 0.3821	0.6992
308.15 K, x1 = 0.4845	0.7526
308.15 K, x1 = 0.5874	0.8292
308.15 K, x1 = 0.6798	0.9216
308.15 K, x1 = 0.7647	1.018
308.15 K, x1 = 0.8499	1.154
308.15 K, x1 = 0.9228	1.273

Brc1ccccc1 + Cc1ccccc1C
101 kPa
Details	viscosity [mPa·s]
293.15 K, x1 = 0.114	0.795
293.15 K, x1 = 0.2198	0.827
293.15 K, x1 = 0.3257	0.862
293.15 K, x1 = 0.4383	0.893
293.15 K, x1 = 0.542	0.931
293.15 K, x1 = 0.6615	0.962
293.15 K, x1 = 0.7764	1
293.15 K, x1 = 0.882	1.035
298.15 K, x1 = 0.1101	0.728
298.15 K, x1 = 0.2223	0.765
298.15 K, x1 = 0.3227	0.795
298.15 K, x1 = 0.4226	0.826
298.15 K, x1 = 0.5207	0.863
298.15 K, x1 = 0.6643	0.9
298.15 K, x1 = 0.772	0.938
298.15 K, x1 = 0.8925	0.969
303.15 K, x1 = 0.117	0.667
303.15 K, x1 = 0.2219	0.701
303.15 K, x1 = 0.3366	0.734
303.15 K, x1 = 0.4539	0.77
303.15 K, x1 = 0.5398	0.8
303.15 K, x1 = 0.6572	0.834
303.15 K, x1 = 0.7877	0.876
303.15 K, x1 = 0.9122	0.91

COc1ccccc1O + Cc1ccccc1N
303.15 K, 101 kPa
Details	viscosity [mPa·s]
x2 = 0.1	4.73
x2 = 0.2	4.93
x2 = 0.3	5.2
x2 = 0.34	5.22
x2 = 0.36	5.19
x2 = 0.4	5.17
x2 = 0.5	5.12
x2 = 0.6	4.82
x2 = 0.7	4.38
x2 = 0.8	4
x2 = 0.9	3.58
